Reference: ChEMBL document CHEMBL4020753, “Inhibition of amyloid β aggregation and protective effect on SH-SY5Y cells by triterpenoid saponins from the cactus Polaskia chichipe” (Bioorg Med Chem, 2017)
Active and inactive are the calls of the source. The calls are words filed in the database; no cut-off is given here.

Target: Amyloid-beta precursor protein (Homo sapiens) (UniProt P05067)
Assay: Inhibition of amyloid beta (1 to 42) (unknown origin)-induced cytotoxicity in human SH-SY5Y cells assessed as increase in cell viability at 50 uM after 24 hrs by WST8 assay
Type: cell-based

Chain of Amyloid-beta precursor protein (Homo sapiens) (P05067 whole entry): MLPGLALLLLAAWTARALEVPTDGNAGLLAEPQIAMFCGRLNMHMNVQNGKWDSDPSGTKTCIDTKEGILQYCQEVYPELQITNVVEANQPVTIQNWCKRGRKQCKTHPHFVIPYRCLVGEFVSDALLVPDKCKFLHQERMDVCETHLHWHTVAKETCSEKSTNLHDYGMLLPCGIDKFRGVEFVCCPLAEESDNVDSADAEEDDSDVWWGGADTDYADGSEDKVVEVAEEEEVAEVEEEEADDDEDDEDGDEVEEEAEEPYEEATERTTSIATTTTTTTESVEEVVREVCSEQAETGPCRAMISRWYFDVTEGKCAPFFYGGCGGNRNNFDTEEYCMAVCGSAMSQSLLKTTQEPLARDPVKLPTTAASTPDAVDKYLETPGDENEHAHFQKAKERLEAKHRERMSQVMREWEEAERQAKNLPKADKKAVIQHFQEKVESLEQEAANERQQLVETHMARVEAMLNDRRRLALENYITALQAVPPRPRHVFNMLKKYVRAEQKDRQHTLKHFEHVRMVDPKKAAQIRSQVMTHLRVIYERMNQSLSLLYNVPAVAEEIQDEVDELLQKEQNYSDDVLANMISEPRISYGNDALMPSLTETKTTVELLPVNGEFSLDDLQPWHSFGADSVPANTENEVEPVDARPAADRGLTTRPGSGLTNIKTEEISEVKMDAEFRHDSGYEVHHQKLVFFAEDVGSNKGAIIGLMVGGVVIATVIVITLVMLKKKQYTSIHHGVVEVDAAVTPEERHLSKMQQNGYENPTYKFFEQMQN

Row | Compound | protection from amyloid beta cytotoxicity (active/not active)
1 | C[C@@H]1O[C@@H](O[C@H]2[C@H](O)[C@@H](C(=O)O)O[C@@H](O[C@H]3CC[C@]4(C)[C@H]5CC=C6[C@@H]7CC(C)(C)CC[C@]7(C(=O)O[C@@H]7O[C@H](CO)[C@@H](O)[C@H](O)[C@H]7O)CC[C@@]6(C)[C@]5(C)CC[C@H]4C3(C)C)[C@@H]2O[C@@H]2O[C@H](CO)[C@@H](O)[C@H](O)[C@H]2O)[C@H](O)[C@H](O)[C@H]1O | Active
2 | C[C@@H]1O[C@@H](OC(=O)[C@]23CCC(C)(C)C[C@H]2C2=CC[C@@H]4[C@@]5(C)CC[C@H](O[C@@H]6O[C@H](C(=O)O)[C@@H](O)[C@H](O[C@@H]7O[C@@H](C)[C@H](O)[C@@H](O)[C@H]7O)[C@H]6O[C@@H]6O[C@H](CO)[C@@H](O)[C@H](O)[C@H]6O)C(C)(C)[C@@H]5CC[C@@]4(C)[C@]2(C)C[C@@H]3O)[C@H](O)[C@H](O)[C@H]1O | Active
3 | CC(=O)OC[C@]12[C@@H](OC(C)=O)CC(C)(C)C[C@H]1C1=CC[C@@H]3[C@@]4(C)CC[C@H](O[C@@H]5O[C@H](C(=O)O)[C@@H](O)[C@H](O)[C@H]5O[C@@H]5O[C@H](CO)[C@@H](O)[C@H](O)[C@H]5O[C@@H]5O[C@@H](C)[C@H](O)[C@@H](O)[C@H]5O)C(C)(C)[C@@H]4CC[C@@]3(C)[C@]1(C)C[C@@H]2OC(C)=O | inactive
4 | CC1(C)CC[C@]2(C(=O)O[C@@H]3O[C@H](CO)[C@@H](O)[C@H](O)[C@H]3O)CC[C@]3(C)C(=CC[C@@H]4[C@@]5(C)CC[C@H](O[C@@H]6O[C@H](C(=O)O)[C@@H](O)[C@H](O)[C@H]6O[C@@H]6O[C@H](CO)[C@@H](O)[C@H](O)[C@H]6O[C@@H]6OC[C@@H](O)[C@H](O)[C@H]6O)C(C)(C)[C@@H]5CC[C@]43C)[C@@H]2C1 | Active
5 | C[C@@H]1O[C@@H](OC(=O)[C@]23CCC(C)(C)C[C@H]2C2=CC[C@@H]4[C@@]5(C)CC[C@H](O[C@@H]6O[C@H](C(=O)O)[C@@H](O)[C@H](O)[C@H]6O[C@@H]6O[C@H](CO)[C@@H](O)[C@H](O)[C@H]6O[C@@H]6OC[C@@H](O)[C@H](O)[C@H]6O)C(C)(C)[C@@H]5CC[C@@]4(C)[C@]2(C)C[C@@H]3O)[C@H](O)[C@H](O)[C@H]1O | Active

Target: Amyloid-beta precursor protein (Homo sapiens) (UniProt P05067)
Assay: Inhibition of amyloid beta (1 to 42) (unknown origin)-induced cytotoxicity in human SH-SY5Y cells assessed as cell viability at 50 uM after 24 hrs by WST8 assay (reference value: 63.1 +/- 5.6%)
Type: cell-based

Row | Compound | Activity [%]
6 | CC(=O)OC[C@]12[C@@H](OC(C)=O)CC(C)(C)C[C@H]1C1=CC[C@@H]3[C@@]4(C)CC[C@H](O[C@@H]5O[C@H](C(=O)O)[C@@H](O)[C@H](O[C@@H]6O[C@@H](C)[C@H](O)[C@@H](O)[C@H]6O)[C@H]5O[C@@H]5O[C@H](CO)[C@@H](O)[C@H](O)[C@H]5O)C(C)(C)[C@@H]4CC[C@@]3(C)[C@]1(C)C[C@@H]2OC(C)=O | 87.4
7 | COC(=O)[C@H]1O[C@@H](O[C@H]2CC[C@]3(C)[C@H]4CC=C5[C@@H]6CC(C)(C)C[C@H](OC(C)=O)[C@]6(COC(C)=O)[C@@H](OC(C)=O)C[C@@]5(C)[C@]4(C)CC[C@H]3C2(C)C)[C@H](O[C@@H]2O[C@H](CO)[C@@H](O)[C@H](O)[C@H]2O[C@@H]2OC[C@@H](O)[C@H](O)[C@H]2O)[C@@H](O)[C@@H]1O | 84.3
8 | COC(=O)[C@H]1O[C@@H](O[C@H]2CC[C@]3(C)[C@H]4CC=C5[C@@H]6CC(C)(C)C[C@H](OC(C)=O)[C@]6(COC(C)=O)[C@@H](OC(C)=O)C[C@@]5(C)[C@]4(C)CC[C@H]3C2(C)C)[C@H](O[C@@H]2O[C@H](CO)[C@@H](O)[C@H](O)[C@H]2O)[C@@H](O[C@@H]2O[C@@H](C)[C@H](O)[C@@H](O)[C@H]2O)[C@@H]1O | 79.2
9 | CC(=O)OC[C@]12[C@@H](OC(C)=O)CC(C)(C)C[C@H]1C1=CC[C@@H]3[C@@]4(C)CC[C@H](O[C@@H]5O[C@H](C(=O)O)[C@@H](O)[C@H](O)[C@H]5O[C@@H]5O[C@H](CO)[C@@H](O)[C@H](O)[C@H]5O[C@@H]5OC[C@@H](O)[C@H](O)[C@H]5O)C(C)(C)[C@@H]4CC[C@@]3(C)[C@]1(C)C[C@@H]2OC(C)=O | 83.7

Target: Amyloid-beta precursor protein (Homo sapiens) (UniProt P05067)
Assay: Inhibition of amyloid beta (1 to 42) (unknown origin)-induced cytotoxicity in human SH-SY5Y cells assessed as cell viability at 6.25 uM after 24 hrs by WST8 assay (reference value: 63.1 +/- 5.6%)
Type: cell-based

Row | Compound | Activity [%]
10 | O=C(OC[C@H]1O[C@@H](OC(=O)c2cc(O)c(O)c(OC(=O)c3cc(O)c(O)c(O)c3)c2)[C@H](OC(=O)c2cc(O)c(O)c(OC(=O)c3cc(O)c(O)c(O)c3)c2)[C@@H](OC(=O)c2cc(O)c(O)c(OC(=O)c3cc(O)c(O)c(O)c3)c2)[C@@H]1OC(=O)c1cc(O)c(O)c(OC(=O)c2cc(O)c(O)c(O)c2)c1)c1cc(O)c(O)c(OC(=O)c2cc(O)c(O)c(O)c2)c1 | 78.8

Target: Amyloid-beta precursor protein (Homo sapiens) (UniProt P05067)
Assay: Inhibition of amyloid beta (1 to 42) (unknown origin)-induced cytotoxicity in human SH-SY5Y cells assessed as increase in cell viability at 12.5 uM after 24 hrs by WST8 assay
Type: cell-based

Row | Compound | inhibition
11 | CC1(C)CC[C@]2(C(=O)O)[C@@H](O)C[C@]3(C)C(=CC[C@@H]4[C@@]5(C)CC[C@H](O)C(C)(C)[C@@H]5CC[C@]43C)[C@@H]2C1 | inactive
12 | CC1(C)C[C@H](O)[C@]2(CO)[C@@H](O)C[C@]3(C)C(=CC[C@@H]4[C@@]5(C)CC[C@H](O)C(C)(C)[C@@H]5CC[C@]43C)[C@@H]2C1 | inactive
13 | CC1(C)CC[C@]2(C(=O)O)CC[C@]3(C)C(=CC[C@@H]4[C@@]5(C)CC[C@H](O)C(C)(C)[C@@H]5CC[C@]43C)[C@@H]2C1 | inactive
14 | CC(=O)OC[C@]12[C@@H](OC(C)=O)CC(C)(C)C[C@H]1C1=CC[C@@H]3[C@@]4(C)CC[C@H](O)C(C)(C)[C@@H]4CC[C@@]3(C)[C@]1(C)C[C@@H]2OC(C)=O | inactive
15 | O=C(OC[C@H]1O[C@@H](OC(=O)c2cc(O)c(O)c(OC(=O)c3cc(O)c(O)c(O)c3)c2)[C@H](OC(=O)c2cc(O)c(O)c(OC(=O)c3cc(O)c(O)c(O)c3)c2)[C@@H](OC(=O)c2cc(O)c(O)c(OC(=O)c3cc(O)c(O)c(O)c3)c2)[C@@H]1OC(=O)c1cc(O)c(O)c(OC(=O)c2cc(O)c(O)c(O)c2)c1)c1cc(O)c(O)c(OC(=O)c2cc(O)c(O)c(O)c2)c1 | inactive
